Results published in patent US5637319A, “Controlled-release preparations” (priority 1995, dated 1997).
Blank lines part the entries; values can stand above or below the molecule they belong to.

What was measured:
[1] = after sulfasalazine to dogs; J. Pharm. Pharmacol., 1995 in press; cited from earlier work
[2] = dog, po
Source text: FIG. 18. Relationship between the thickness of EC layer of intestinal pressure controlled-release capsules and plasma fluorescein Tmax after oral administration to beagle dogs.

[3] = Release study of cisplatin capsules with different pore number and amount of gel-forming polymer (FIGS. 1a-c, 2a-c); type: physicochemical
Source text: The release rate of extremely hydrophilic low-molecular weight drug such as cisplatin from the sustained-release preparation is affected by the following three factors; (1) pore number made on the water-insoluble polymer, (2) pore size and (3) amount of gel-forming material inside the preparation. From the standpoint of mechanical operation of opening many uniform pores, the pore size was fixed to be 800 μm. Under the fixed pore size condition, the effects of the pore number was at first examined and the release patterns of cisplatin from the preparations are shown in FIGS. 1a, b and c. […] The release study data are summarized with respect to the effect of the amount of gel-forming polymer and the results are shown in FIGS. 2a, b and c.
The test was performed according to the procedure of the paddle method (JPXII). A dissolution media employed were the 1st solution (JPXII, pH 1.2) and the 2nd solution (JPXII, pH 6.8). Nine hundred ml of the dissolution medium was used at 37°±0.1° C. at 100rpm. Test capsule was put into a stainless sinker. After being enclosed in the sinker, the capsule was put into 900 ml of the 1st solution maintained at 37° C. The shaft was then placed in the fluid at 37° C. and the paddle was rotated at 100 rpm. To simulate the transit from gastric to intestinal pH, samples of 1st solution were replaced one hour later with the 2nd solution. The release profile of 5-FU was estimated by measuring the appearance of the drug by HPLC method. The cisplatin concentration was estimated by analyzing for platinum by atomic absorption spectrophotometry.

[4] = Serum cisplatin concentration after oral administration to rabbits; type: in vivo, rabbit; details: sustained-release preparation
Procedure: The effects of the pore number and the amount of gel-forming polymer on the release profiles of cisplatin was confirmed in the in vivo study after oral administration of the preparations to rabbits using a reference preparation, cisplatin solution, at 20 mg/kg. […] The absorption rate of cisplatin is so rapid that the serum peak level appears within 1 hr.
In case of preparations of which drug release mechanism is based on the intestinal pressure, drug release profiles of the preparations in Examples 4, 5, 6, 7 and 8 cannot be measured by in vitro release experiments. In addition, in the case of sustained-release preparations in Examples 9, 10 and 11, the long-acting efficiency must be confirmed in the in vivo animal study after oral administration. Therefore, in vivo pharmacokinetics study was performed using beagle dogs and rabbits. In the in vivo study, the preparations of the Examples except examples 6, 10 and 11 were administered to dogs and rabbits, respectively. […] These plasma and serum samples were immediately frozen in a deep freezer at -20° C. until analyzed.
Plasma 5ASA and 5-FU concentrations were measured by an HPLC method after extraction of the drug from the plasma sample. The serum cisplatin level was determined by analyzing for platinum by atomic absorption spectrophotometry. The plasma calcitonin level was determined by an ELISA method.

[5] = set-up: species or system beagle dog; details: dog, in vivo
Procedure: The peak time, Tmax, when the plasma 5-FU level reaches to its maximum level is used as a parameter for estimating the release time of drug in the GI tract after oral administration. […] According to the report of Anderson ([…]), for the dog, gastric emptying is 3-5 h, small intestine transit time is about 1 h and colonic transit time is 10-12 hr. On the other hand, Mizuta et al. (1989) reported that the small intestinal transit time in beagle dog is 3.0±1.4 h. Additionally, the transit of the test preparation was monitored by a direct examination of the dog intestine by abdominal incision. In this study, the delivery of these preparations to the ascending colon at 4 hr after administration was confirmed. In addition, to estimate the colon arrival time in the beagle dogs, sulfasalazine which is a pro-drug of 5ASA and is cleaved to sulfapyridine and 5ASA in the colon by azo-reductase of intestinal microflora was administered to the dogs. Sulfapyridine starts to appear in the blood circulation at 4 hr after administration and reaches to its maximum concentration at 10-12 hr (J. Pharm. Pharmacol., 1995 in press). Accordingly, colon arrival time has been estimated to be 4 hr in our beagle dogs.

[6] = tested on: blood total leukocyte (BTL) count; assay: Pharmacodynamic study: blood total leukocyte (BTL) count after oral administration of rhG-CSF capsule to beagle dogs; type: in vivo, beagle dog; details: 25 μg/kg oral, three dogs
Procedure: The test capsule, a preparation of Example 6, was orally administered to beagle dogs. At 30 min before drug administration, 0.6 ml of the blank blood sample was removed from the dog jugular vein. After administration, 0.1 ml of blood samples were collected at 10, 24, 36, 48, 60, 72 and 96 h. […] of the blood sample was used for blood total leukocyte (BTL) count. The BTL count was performed by microcell counter CC-180A (Sysmex, Toa Medical Electronics). The BTL count is expressed as a relative value, which is obtained by the respective control BTL count, namely the pre-dosing BTL count.

Molecule: Nc1ccc(S(=O)(=O)Nc2ccccn2)cc1 [Sulfapyridine, sulfapyridine]
time at which sulfapyridine starts to appear in the blood circulation [1]: 4 h

Molecule: O=C1OC2(c3ccc(O)cc3Oc3cc(O)ccc32)c2ccccc21 [fluorescein]
capsule thickness vs. in vivo Tmax [2]: good corelationship between the capsule thickness and the in vivo Tmax

Molecule: N.N.[Cl][Pt][Cl] [cisplatin]
release rate of cisplatin, effect of pore number ([3]; gel-forming polymer 100 mg): the pore number did not affect the release rate of cisplatin any more | effect of increase of the amount of gel-forming polymer on release ([3]; pore number 20): the effect of the increase of the amount of gel-forming polymer did not appear | release rate of cisplatin, effect of pore number ([3]; pore number 20 to 30, gel-forming polymer 25 mg and 50 mg): the release rate of cisplatin increases | release rate of cisplatin, effect of amount of gel-forming polymer ([3]; pore number 30 and 60, gel-forming polymer 25 mg to 50 mg): the release rate of cisplatin decreases | prolonged effect of pore number ([3]; pore number 30 to 60, gel-forming polymer 25 mg and 50 mg): prolonged effect was not observed | serum cisplatin levels, effect of pore number ([4]; pore number 20 to 30, carbopol 25 mg (FIG. 4)): significantly increases as the pore number increases from 20 to 30 | serum cisplatin level vs. time curves, effect of amount of gel-forming polymer ([4]; pore number 30 (FIG. 5)): there is not a significant difference

colon arrival time [5]: 4 h
Molecule: O=C(O)c1cc(/N=N/c2ccc(S(=O)(=O)Nc3ccccn3)cc2)ccc1O [sulfasalazine]

B1: rhG-CSF: recombinant human granulocyte colony-stimulating factor, given orally as the capsule of Example 6 (protein, UniProt P09919 31-207, looked up)
Granulocyte …: TPLGPASSLPQSFLLKCLEQVRKIQGDGAALQEKLVSECATYKLCHPEELVLLGHSLGIPWAPLSSCPSQALQLAGCLSQLHSGLFLYQGLLQALEGISPELGPTLDTLQLDVADFATTIWQQMEELGMAPALQPTQGAMPAFASAFQRRAGGVLVASHLQSFLEVSYRVLRHLAQP
BTL count relative to pre-dose level [6]: 1.3 folds of pre-dose level | time at which BTL count starts to increase [6]: 10 h | BTL count return to the normal level ([6]; end of the experiment): 96 h
